{"source": "paper PMC5563081", "about": "“Modulating Protein-Protein Interactions of the Mitotic Polo-like Kinases to Target Mutant KRAS” (Cell Chemical Biology, 2017)", "key": {"[1]": {"system": "SW48 parental (KRAS WT) cells", "assay": "Cell viability (SRB), SW48 parental", "type": "cell-based", "settings": "Homo sapiens; SW48 KRAS WT, Crizotinib with DMSO, SRB 72 hr; read-out: GI50", "procedure": "(§1) SW48 Parental, SW48 G12D, Panc-1, HPAF-II, Panc 02.03 and Panc 05.04 cell lines were seeded overnight at 5000 cells per well in a 96 well plate in recommended media (ATCC). Compounds were added the following day and viability was measured at 72h using the sulforhodamine B (SRB) colorimetric assay as follows. Cells were fixed by replacing media with 1% v/v Trichloroacetic Acid (TCA) (Sigma-Aldrich) at 4°C and incubated for 1h also at 4°C. Wells were washed thoroughly with copious amounts of deionised water before staining with Sulforhodamine B (SRB) (Sigma-Aldrich) solution (0.057% w/v in 1% v/v Acetic Acid (VWR)) for 30 min. Stain was aspirated and wells washed with several changes of 1% v/v Acetic Acid until unbound stain was removed, before air-drying. Bound stain was solubilized with 100μl / well 10mM Tris (pH 8.0) (Trizma Base (121.1) Sigma-Aldrich) with agitation for 10 min. Fluorescence intensity was recorded at Ex540nm / Em590nm using a BMG Pherastar Plus plate reader ([Vichai and Kirtikara, 2006])."}, "[2]": {"system": "SW48 KRAS G12D cells", "assay": "Cell viability (SRB), SW48 KRAS G12D", "type": "cell-based", "settings": "Homo sapiens; SW48 KRAS G12D, Crizotinib with DMSO, SRB 72 hr; read-out: GI50", "procedure": "as §1"}, "[3]": {"system": "murine pancreatic organoids KRAS WT p53 MUT", "assay": "Viability of pancreatic organoids (CellTitre Glo 3D), KRAS WT", "type": "cell-based", "settings": "Mus musculus; organoids KRAS WT p53 MUT, Crizotinib plus DMSO, n=2; read-out: Mean GI50", "procedure": "(§2) Organoid cultures were prepared from the pancreas of LSL-Trp53^R172H/+, Pdx-1-Cre (for Kras WT organoids) or LSL-Trp53^R172H/+, LSL-Kras^G12D/+, Pdx-1-Cre (for Kras^G12D organoids KPC3760 and KPC26684) strains ([Hingorani et al., 2005]). Pancreatic ducts were manually picked after tissue mincing and overnight enzymatic digestion with 0.012% (w/v) collagenase XI (Sigma) and 0.012% (w/v) dispase (GIBCO) in DMEM media containing 1% FBS (GIBCO), before seeding in growth-factor-reduced (GFR) Matrigel (BD) ([Boj et al., 2015]).\n(§3) Pancreatic organoids were extracted and cultured as detailed above ([Boj et al., 2015]). In brief, pancreatic organoids were seeded at 600 cells per well in a 96 well plate and allowed to grow for 7 days with media replenishment on the 3rd day. Full-grown organoids were then treated with compounds for 72h and viability determined using CellTitre Glo 3D assay (Promega). For viability assays with c-MET siRNA, cells were reverse transfected in a 6 cm dish using Dharmafect 1 (GE Dharmacon) per manufacturer’s instructions. On the following day, cells were trypsinised and plated onto 96 well plates or 6 well plates. The 96 well plates were treated with a dose range of compounds or DMSO, and viability was determined via SRB colorimetric assay. Cells in the 6 well plates were collected at the end of experiment to corroborate knockdown of c-MET by Western blotting."}, "[4]": {"system": "murine pancreatic organoids KRAS MUT p53 MUT", "assay": "Viability of pancreatic organoids (CellTitre Glo 3D), KRAS G12D", "type": "cell-based", "settings": "Mus musculus; organoids KRAS MUT p53 MUT #2, Crizotinib plus DMSO, n=2; read-out: Mean GI50", "procedure": "as §2, §3"}, "[5]": {"system": "Panc-1", "assay": "Cell viability (SRB), Panc-1", "type": "cell-based, human", "settings": "Homo sapiens", "procedure": "as §1, §3\nCells were reverse-transfected with 50nM (SW48 parental, SW48 KRAS G12D and Panc-1) or 25nM (HeLa Flp-In T-REx parental cells) siRNA using Dharmafect (GE Dharmacon) as manufacturer’s recommendations. Where transfected cells were subsequently treated with compounds, the cells were allowed to settle overnight and then treated with compound at the indicated concentration the following day. Viability was assessed after 72 hrs, with the SRB colorimetric assay. Knockdown efficiencies were determined by Western blot or RT-qPCR. Oligos against the following target sequences were used. c-MET (Qiagen): […], […], […]. PLK1 (Qiagen): […]. PLK2 (SMARTpool; Dharmacon): ACACAGAAGGAGAACGAUA, CAUCAAUGAGGAUAGGAUA, CUGCCUAGUGUUACUGAUA, ACAAAGUCUACGCCGCAAA. PLK3 (SMARTpool; Dharmacon): GCGAGAAGAUCCUAAAUGA, GCAAGUGGGUUGACUACUC, GCACAUCCGUUGGCCAUCA, GACCUCAAGUUGGGAAAUU. PLK4 (Qiagen): […]."}, "[6]": {"system": "Panc 02.03", "assay": "Cell viability (SRB), Panc 02.03", "type": "cell-based", "settings": "Homo sapiens, Panc 02.03; read-out: Crizotinib GI50", "procedure": "as §1\nas §3, with “Cells in the 6 well plates were collected at the end of experiment to corroborate knockdown of c-MET by Western blotting.” left out\n(§4) Cells were reverse-transfected with 50nM (SW48 parental, SW48 KRAS G12D and Panc-1) or 25nM (HeLa Flp-In T-REx parental cells) siRNA using Dharmafect (GE Dharmacon) as manufacturer’s recommendations. […] Viability was assessed after 72 hrs, with the SRB colorimetric assay. Knockdown efficiencies were determined by Western blot or RT-qPCR. […]"}, "[7]": {"system": "Panc 05.04", "assay": "Cell viability (SRB), Panc 05.04", "type": "cell-based", "settings": "Homo sapiens, Panc 05.04; Panc 04.05; read-out: Crizotinib GI50", "procedure": "as §1\nas §3, with “Cells in the 6 well plates were collected at the end of experiment to corroborate knockdown of c-MET by Western blotting.” left out\nas §4"}, "[8]": {"system": "DLD-1", "assay": "Cell viability, DLD-1", "type": "cell-based", "settings": "Homo sapiens, read-out: Crizotinib GI50"}, "[9]": {"system": "SW116", "assay": "Cell viability, SW1116", "type": "cell-based", "settings": "Homo sapiens, read-out: Crizotinib GI50"}, "[10]": {"system": "HT29", "assay": "Cell viability, HT29", "type": "cell-based", "settings": "Homo sapiens, HT-29, read-out: Crizotinib GI50"}}, "note": "Read-outs that look alike come from different tables or passages of the source."}
{"smiles": "C[C@@H](Oc1cc(-c2cnn(C3CCNCC3)c2)cnc1N)c1c(Cl)ccc(F)c1Cl", "note": "[Crizotinib, reference compound]", "values": [{"measurement": "GI50", "setting": "[1]", "result": "560 ± 20", "unit": "nM"}, {"measurement": "GI50", "setting": "[2]", "result": "630 ± 10", "unit": "nM"}, {"measurement": "GI50", "setting": "[3]", "result": 17600, "unit": "nM"}, {"measurement": "GI50", "setting": "[4]", "result": 6800, "unit": "nM"}, {"measurement": "GI50", "setting": "[5]; PANC-1, 72 h, Panc-1, individual compound, 72 hr, Figure 7F/7G, read-out: Abs GI50", "result": 2500, "unit": "nM"}, {"measurement": "GI50", "setting": "[5]; PANC-1, Panc-1, read-out: Crizotinib GI50", "result": 7240, "unit": "nM"}, {"measurement": "EC50", "setting": "[5]; Panc-1, c-MET inhibitor alone, SRB 72 h, Figure S5C, read-out: EC50, % survival", "result": "3500 ± 1040", "unit": "nM"}, {"measurement": "GI50", "setting": "[6]", "result": 960, "unit": "nM"}, {"measurement": "GI50", "setting": "[7]", "result": 91, "unit": "nM"}, {"measurement": "GI50", "setting": "[8]", "result": 1620, "unit": "nM"}, {"measurement": "GI50", "setting": "[9]", "result": 4730, "unit": "nM"}, {"measurement": "GI50", "setting": "[10]", "result": 3850, "unit": "nM"}]}
